{
  "source": "patent US20230241061A1",
  "about": "“METHODS AND PHARMACEUTICAL COMPOSITIONS FOR THE TREATMENT OF FGFR3-RELATED COGNITIVE DEFICIT” (INSERM (INSTITUT NATIONAL DE LA SANTÉ ET DE LA RECHERCHE …, priority 2020, published 2023)",
  "key": {"[1]": {"tested_on": "Fgfr3^A385E/+ mice", "experiment": "Novel object recognition (NOR) in CAN mouse model", "format": "in vivo", "conditions": "4-month-old male Fgfr3^A385E/+ mice, daily intra-cerebro-ventricular injections for 7 days, compared to control littermates, FIG. 2B", "protocol": "A. Local daily intracerebroventricular injection with either BGJ398 or vehicle in 4 month-old male animals during 7 days. NOR training session occurred 1 hour after last injection B. NOR performed on groups injected with vehicle or BGJ398. Injection and NOR were performed on two independent groups with the three conditions each (Fgfr3^+/+ + vehicle, n=15; Fgfr3^A385E/+ + vehicle, n=14; Fgfr3^A385E/+ + BGJ398, n=14. C. Local daily intracerebroventricular injection with either BGJ398 or vehicle in 4 month-old male animals during 7 days. One FST testing session occurring 1 hour after last injection. Immobility duration was assessed during testing. D. FST performed on groups injected with vehicle or BGJ398. Injection and FST were performed on two independent groups with the three conditions each (Fgfr3^+/+ + vehicle, n=15; Fgfr3^A385E/+ + vehicle, n=14; Fgfr3^A385E/+ + BGJ398, n=14). *P<0.05 **P<0.01, ***P<0.001.NS Not significant by ANOVA with Tukey’s multiple comparisons post-test and Student’s unpaired t test. […]\n(§1) We used a modified version of the NOR task as described in Glatigny et al., 2019. […] The testing room was lit with two 60-W light bulbs and behavior sessions were recorded with a camera above the testing arena (grey plastic box (60 × 40 × 32 cm)). […] The objects elicited equal levels of exploration as determined in pilot experiments and training phase. […]"}, "[2]": {"tested_on": "Fgfr3^A385E/+ mice", "experiment": "Forced swim test (FST) in CAN mouse model", "format": "in vivo", "conditions": "4-month-old male Fgfr3^A385E/+ mice, daily intra-cerebro-ventricular injections for 7 days, test 1 hour after last injection, FIG. 2D", "protocol": "A. Local daily intracerebroventricular injection with either BGJ398 or vehicle in 4 month-old male animals during 7 days. NOR training session occurred 1 hour after last injection B. NOR performed on groups injected with vehicle or BGJ398. Injection and NOR were performed on two independent groups with the three conditions each (Fgfr3^+/+ + vehicle, n=15; Fgfr3^A385E/+ + vehicle, n=14; Fgfr3^A385E/+ + BGJ398, n=14. C. Local daily intracerebroventricular injection with either BGJ398 or vehicle in 4 month-old male animals during 7 days. One FST testing session occurring 1 hour after last injection. Immobility duration was assessed during testing. D. FST performed on groups injected with vehicle or BGJ398. Injection and FST were performed on two independent groups with the three conditions each (Fgfr3^+/+ + vehicle, n=15; Fgfr3^A385E/+ + vehicle, n=14; Fgfr3^A385E/+ + BGJ398, n=14). *P<0.05 **P<0.01, ***P<0.001.NS Not significant by ANOVA with Tukey’s multiple comparisons post-test and Student’s unpaired t test.\n(§2) BGJ398 was purchased from LC Laboratories, Woburn, MA, USA. […]\nThis test is based on a similar observation than the TST. […] Mice were tested for 5 min, and the time spent immobile (behavioral despair) was quantified."}, "[3]": {"tested_on": "Fgfr3^Asn534Lys/+ mice", "experiment": "Novel object location (NOL) in HCH mouse model", "format": "in vivo", "conditions": "4 months old male Fgfr3^Asn534Lys/+ mice, daily subcutaneous 2 mg/kg for six days, p= 0.9538 vs control littermates, FIG. 3A", "protocol": "(§3) FIG. 3: Learning impairment is reverse by FGFR3 tyrosine kinase inhibitor daily subcutaneous injection of BGJ398. A. Novel object location (NOL) was performed in 4 months old male animals. Discrimination index was measured 24 h after training phase to assess memory performance of Fgfr3Asn534Lys/+ and their control littermates. B. Novel object recognition (NOR) was performed in 4 months old male animals. Discrimination index was measured 24 h after training phase to assess memory performance of Fgfr3Asn534Lys/+ + BGJ398, Fgfr3Asn534Lys/+ and their control littermates. NOR and NOL were performed on two independent groups of Fgfr3Asn534Lys/+ (n=12) Fgfr3Asn534Lys/+ + BGJ398 (n=14) and their controls (n=14).\nas §2\nFor the novel object location task, all procedures were identical to the novel object recognition task except that during the testing phase, rather than presenting a novel object, mice encountered both familiar objects, with one object located in a different place in the arena. The time and frequency of exploration of the novel/relocated object is measured as an index of memory. Behavior was scored on videos by two observers blind to treatment and the total exploration time of the objects was quantified in the testing phases."}, "[4]": {"tested_on": "Fgfr3^Asn534Lys/+ mice", "experiment": "Novel object recognition (NOR) in HCH mouse model", "format": "in vivo", "conditions": "4 months old male Fgfr3^Asn534Lys/+ mice, daily subcutaneous 2 mg/kg for six days, p= 0.8697 vs control littermates, FIG. 3B", "protocol": "as §3, with “NOR and NOL were performed on two independent groups of Fgfr3Asn534Lys/+ (n=12) Fgfr3Asn534Lys/+ + BGJ398 (n=14) and their controls (n=14).” left out\nas §1\nThe following behaviors were considered as exploration of the objects: sniffing, licking, or touching the object with the nose or with the front legs or directing the nose to the object at a distance ≤ 1 cm. Investigation was not scored if the mouse was on top of the object or completely immobile. The discrimination index was calculated as (time spent exploring the new object - time spent exploring the familiar object) / (total time spent exploring both objects). […]"}, "[5]": {"biological_target": "T1, FGFR3 (Mus musculus, UniProt Q61851, A385E)", "T1 construct": "from tissue; host or cells: brain (hippocampus) of Fgfr3^A385E/+ knock-in mice", "T1 sequence (Q61851 21-801 A385E)": "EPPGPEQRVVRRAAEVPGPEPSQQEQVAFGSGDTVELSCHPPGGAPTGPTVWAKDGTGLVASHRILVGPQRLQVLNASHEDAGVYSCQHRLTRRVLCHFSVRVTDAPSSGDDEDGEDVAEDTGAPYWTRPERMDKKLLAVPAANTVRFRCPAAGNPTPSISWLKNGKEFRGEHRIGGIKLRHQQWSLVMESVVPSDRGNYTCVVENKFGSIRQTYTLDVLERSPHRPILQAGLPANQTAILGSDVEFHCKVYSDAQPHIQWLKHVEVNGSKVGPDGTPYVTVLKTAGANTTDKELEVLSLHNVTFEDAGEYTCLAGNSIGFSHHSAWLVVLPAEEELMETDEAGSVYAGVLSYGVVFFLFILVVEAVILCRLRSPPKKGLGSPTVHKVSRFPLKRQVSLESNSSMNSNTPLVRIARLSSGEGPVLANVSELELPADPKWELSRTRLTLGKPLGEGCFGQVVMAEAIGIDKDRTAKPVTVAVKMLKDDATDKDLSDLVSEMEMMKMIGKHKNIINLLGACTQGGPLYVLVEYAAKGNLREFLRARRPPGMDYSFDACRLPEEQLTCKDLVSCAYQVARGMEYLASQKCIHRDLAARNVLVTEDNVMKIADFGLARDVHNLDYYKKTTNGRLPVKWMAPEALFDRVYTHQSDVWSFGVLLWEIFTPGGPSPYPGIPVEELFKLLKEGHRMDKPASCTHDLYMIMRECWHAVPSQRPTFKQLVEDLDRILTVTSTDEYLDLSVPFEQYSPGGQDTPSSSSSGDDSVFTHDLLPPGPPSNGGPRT", "experiment": "FGFR3 overactivation in the brain of CAN mouse model", "format": "in vivo", "conditions": "Fgfr3^A385E/+ mice"}, "[6]": {"tested_on": "FGFR3 related Achondroplasia mouse model", "conditions": "subcutaneous injections, Komla-Ebri et al. 2016; cited from earlier work"}, "[7]": {"biological_target": "FGFR3 (Homo sapiens, UniProt P22607)", "sequence (P22607 23-806, species assumed)": "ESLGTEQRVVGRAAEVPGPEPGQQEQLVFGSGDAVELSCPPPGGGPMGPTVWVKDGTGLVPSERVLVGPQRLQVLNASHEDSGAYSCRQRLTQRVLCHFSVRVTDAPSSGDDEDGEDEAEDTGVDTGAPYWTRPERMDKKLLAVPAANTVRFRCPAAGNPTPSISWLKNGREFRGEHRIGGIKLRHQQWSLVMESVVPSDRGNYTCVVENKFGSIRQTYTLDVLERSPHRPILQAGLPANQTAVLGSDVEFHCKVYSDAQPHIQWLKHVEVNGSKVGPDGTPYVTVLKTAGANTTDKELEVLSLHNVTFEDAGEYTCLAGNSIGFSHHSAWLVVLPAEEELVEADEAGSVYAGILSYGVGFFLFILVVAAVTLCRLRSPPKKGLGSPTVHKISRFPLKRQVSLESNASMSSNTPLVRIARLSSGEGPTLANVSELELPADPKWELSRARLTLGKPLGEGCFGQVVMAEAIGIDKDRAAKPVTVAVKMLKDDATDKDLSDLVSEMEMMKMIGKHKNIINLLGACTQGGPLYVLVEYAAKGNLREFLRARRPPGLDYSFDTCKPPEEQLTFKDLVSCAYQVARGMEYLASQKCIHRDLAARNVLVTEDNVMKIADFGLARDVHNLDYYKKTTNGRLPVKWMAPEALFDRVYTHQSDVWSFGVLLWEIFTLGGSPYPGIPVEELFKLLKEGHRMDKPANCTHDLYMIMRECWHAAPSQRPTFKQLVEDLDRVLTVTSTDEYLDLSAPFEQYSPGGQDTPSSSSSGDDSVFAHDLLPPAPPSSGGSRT", "conditions": "reason given for selecting the inhibitor; cited from earlier work"}},
  "note": "Entries after “also recorded” stand apart in the source; their conditions may differ.",
  "data": [
    {"smiles": "CCN1CCN(c2ccc(Nc3cc(N(C)C(=O)Nc4c(Cl)c(OC)cc(OC)c4Cl)ncn3)cc2)CC1", "note": "[BGJ398, 3-(2,6-dichloro-3,5-dimethoxyphenyl)-1-[6-[4-(4-ethylpiperazin-1-yl)anilino]pyrimidin-4-yl]-1-methylurea]", "values": [
      {"measurement": "memory deficits in the NOR paradigm (discrimination index)", "setting": "[1]", "value": "reversed the memory deficits"},
      {"measurement": "coping strategy to an inescapable stress in the FST (immobility duration)", "setting": "[2]", "value": "reestablished the coping strategy to an inescapable stress"},
      {"measurement": "spatial memory deficit (NOL), exploration of the relocated object", "setting": "[3]", "value": "sufficient to restore the spatial (NOL)"},
      {"measurement": "episodic memory deficit (NOR), exploration of the novel object", "setting": "[4]", "value": "to the same levels than control littermates"},
      {"measurement": "FGFR3 overactivation in the brain", "setting": "[5]", "value": "inhibited the FGFR3 overactivation in the brain"},
      {"measurement": "FGFR3 over-activation", "setting": "[6]", "value": "abolished the FGFR3 over-activation"},
      {"measurement": "chondrodysplasia phenotype / skeletal anomalies", "setting": "[6]", "value": "rescued the chondrodysplasia phenotype; also recorded: efficacy of BGJ398 in skeletal anomalies"},
      {"measurement": "binding specificity for FGFR3", "setting": "[7]", "value": "highest binding specificity for FGFR3"}
    ]}
  ]
}
